According to patent US12533350B2, “Use of melanocortin-1 receptor agonist” (TANABE PHARMA CORPORATION, priority 2022, dated 2026):

Assays:
[1] = system: dermal fibroblasts from healthy donors; experiment: TGF-β-induced human fibroblast activation, healthy donors; assay type: cell-based; details: TGF-β 10 ng/mL, 24 hours
Description: Full-thickness skin biopsies were obtained from clinically involved skin of patients affected by dcSSc, who were recruited from the Systemic sclerosis clinic within the Leeds Institute of Rheumatic and Musculoskeletal Medicine (UK). Control skin samples were from healthy donors. All patients with dcSSc and healthy donors provided written informed consent through the stratification for risk of progression in systemic sclerosis (STRIKE SSC), which had been approved by the North-East Research Ethic committee. Patients with SSc fulfilled the 2013 ACR/EULAR classification criteria for SSc and were classified as having dcSSc according to the LeRoy and Medsger criteria.
Dermal fibroblasts were isolated from the skin biopsy samples of healthy donors and SSc patients. The skin biopsy samples were minced with a scalpel, placed in plastic culture dishes and covered with Dulbecco's Modified Eagle Medium (DMEM) with 4.5 g/L glucose (Thermo Fisher Scientific) supplemented with 20% fetal calf serum (FCS, Thermo Fisher Scientific), 1% penicillin and streptomycin (Merck), and 1 μg/ml of amphotericin (Thermo Fisher Scientific) and cultured at 37° C. in a humidified atmosphere of 5% CO2. Additional growth medium was added after 3 days with no amphotericin. After 7 days, culture medium was replaced with medium containing 10% FCS and subsequently replenished every 2 to 3 days. When a visible outgrowth of cells was obtained, the fibroblasts were passaged. Briefly, cells were incubated with PBS containing 0.1% EDTA for 5 min, and then detached with trypsin-EDTA solution (Merck), and cultured until 70-80% confluent in DMEM (1 g/L glucose) supplemented with 10% FCS and 1% penicillin and streptomycin. After a subsequent passage, primary cells were retrovirally immortalized using human telomerase reverse transcriptase. […]
Total RNA was extracted using the Zymo quick RNA mini prep kit according to manufacturer's instructions (Zymo Research Corporation). […] Quantitative RT-PCR was performed in triplicates using SYBR Green RT-PCR Mastermix Kit (Thermo Fisher Scientific) and the ABI PRISM 7500 Fast Real Time PCR System (Applied Biosystems). […]
FIGS. 5(A)-5(B) show the effect of Compound A on human fibroblast activation. Dermal fibroblasts from a healthy individual or an SSc patient were grown to confluence, and placed under starvation for 24 hours in a medium supplemented with 1% fetal bovine serum (A: mRNA expression of ACTA2 and COL1A1 in dermal fibroblasts of healthy individuals was measured by real-time PCR, and normalized for the GAPDH expression level. B: mRNA expression of ACTA2 and COL1A1 in dermal fibroblasts of SSc patients was measured for by real-time PCR, and normalized for the GAPDH expression level). Each bar represents the mean±SEM of the measured values from three wells. […]

MC1R = MC1R (Homo sapiens, UniProt Q01726); details: described in WO 2020/138481; co-crystal with phosphoric acid; cited from earlier work
[2] = system: serum proteins in BLM-induced SSc model; details: Compound A 10 mg/kg
Protocol: Serum samples were obtained from mice of the BLM-induced SSc model (therapeutic evaluation). Samples from the saline_vehicle (control group without disease), BLM_vehicle (control group with disease), BLM_Compound A (10 mg/kg), and BLM_imatinib (150 mg/kg) groups were used for analysis. Using a Luminex assay (R&D systems), 110 proteins were investigated (supplemental Table s1). Proteins satisfying any of the following criteria were analyzed: i) all samples were adequately measured within the quantitative range; ii) more than half of the samples in one or more groups were quantified, although some samples were out of the quantitative range.
Using serum samples of mice to which 10 mg/kg of Compound A and 150 mg/kg of imatinib were administered, serum protein profiling was carried out in a BLM-induced SSc model (treatment model). Using a Luminex assay, 110 kinds of proteins were investigated.

MC1R, sequence (Q01726 whole entry, species assumed): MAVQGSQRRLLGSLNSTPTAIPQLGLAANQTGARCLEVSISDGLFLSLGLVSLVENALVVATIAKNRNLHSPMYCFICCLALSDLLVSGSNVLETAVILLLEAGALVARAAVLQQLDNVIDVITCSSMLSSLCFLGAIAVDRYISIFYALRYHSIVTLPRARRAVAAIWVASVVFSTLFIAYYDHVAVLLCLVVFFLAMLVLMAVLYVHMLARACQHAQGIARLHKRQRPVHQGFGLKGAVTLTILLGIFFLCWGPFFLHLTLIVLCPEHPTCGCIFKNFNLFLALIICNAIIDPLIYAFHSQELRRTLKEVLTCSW

In the case of `COC[C@H]1CN(C(=O)[C@]2(F)CN(C3CCCC3)C[C@H]2c2ccc(OC)cc2)C[C@@H]1c1ccc(C(F)(F)F)cc1N1CCC(C(=O)O)CC1` [Compound A, 1-{2-[(3S,4R)-1-{[(3R,4R)-1-cyclopentyl-3-fluoro-4-(4-methoxyphenyl)pyrrolidin-3-yl]carbonyl}-4-(methoxymethyl)pyrrolidin-3-yl]-5-(trifluoromethyl)phenyl}piperidine-4-carboxylic acid], the “TGF-β-induced αSMA (ACTA2) mRNA elevation” value ([1]; concentration-dependent, normalized to GAPDH) is reported as “inhibited”, the “TGF-β-induced COL1A1 mRNA expression” value ([1]; normalized to GAPDH) is reported as “no effect” and the “TGF-β-induced increase in αSMA mRNA expression” value ([1]; concentration of 1000 nmol/L) is reported as “suppressed”. The “MCR-activating action, especially MC1R-activating action” value (MC1R) was “excellent MCR-activating action”, the “BLM-induced elevation of serum GDF-15” value [2] was “significantly suppressed” and the “BLM-induced elevation of serum MMP-2” value [2] was “significantly suppressed”. For the same compound, the “BLM-induced elevation of serum MMP-3” value [2] was “significantly suppressed”, the “BLM-induced elevation of serum P-selectin” value [2] was “significantly suppressed” and the “BLM-induced elevation of serum S100A9” value [2] was “significantly suppressed”. For the same compound, the “BLM-induced elevation of serum TIMP-1” value [2] was “significantly suppressed”, the “BLM-induced elevation of serum TNFRI” value [2] was “significantly suppressed” and the “BLM-induced elevation of serum TNFRII” value [2] was “significantly suppressed”. The “BLM-induced elevation of serum adiponectin” value [2] was “significantly suppressed”, the “BLM-induced elevation of serum cystatin C” value [2] was “significantly suppressed” and the “BLM-induced elevation of serum osteoprotegerin” value [2] was “significantly suppressed”.
